Reference: patent US5342839A, “2-hydroxy-3-phenoxy-propyl-substituted piperazines, their preparation and use” (BASF Aktiengesellschaft, priority 1988, dated 1994)

Columns and labels:
[1] = Protection from acute cerebral hypoxia (survival time of mice in 3.5 parts O2/96.5 parts N2); assay type: in vivo; conditions: female mice, i.p., hypoxia 3.5 parts oxygen/96.5 parts nitrogen; for ED50: Mus musculus, ip, read-out: Test 1 ED 50% (dose which increases survival time of the animals by 50%), hypoxia
Procedure: 1. Protection from acute cerebral hypoxia
Female mice (weight 22-28 g) were placed in a glass tube (diameter 6 cm) through which was passed a mixture of 3.5 parts of oxygen and 96.5 parts of nitrogen. Untreated control animals survived 138 sec. on average in a glass tube of this type. The dose of active substances which, after intraperitoneal administration thereof, increases the survival time of the animals by 50% was determined.

[2] = Protection from global cerebral ischemia (survival time of mice after MgCl2); assay type: in vivo; conditions: female mice, i.p., before 0.1 ml of 80% strength MgCl2.6H2O solution; for ED50: Mus musculus, ip, read-out: Test 2 ED 50% (dose which increases survival time of the animals by 50%), global ischemia
Procedure: 2. Protection from global cerebral ischemia
Female mice (weight 24-27 g) received the active substance intraperitoneally before administration of 0.1 ml of an 80% strength solution (g/l) of MgCl2.6H2 O. Untreated control animals survive 24 sec. on average after administration of MgCl2. The dose of active substances which increases the survival time of the animals by 50% compared with placebo-treated animals was determined.

[3] = target: T1, calcium channel (Cavia porcellus, UniProt A0A286X7I0); assay: Affinity to the calcium channel: inhibition of specific (S)-3H-devapamil binding to guinea-pig skeletal muscle membranes; conditions: 1 nM (S)-3H-devapamil, pH 7.4, 20° C., 60 minutes, read-out: Test 3 Ki
T1 construct: guinea-pig skeletal muscle membranes; from tissue; host or cells: guinea-pig skeletal muscle membranes
Procedure: 3. Affinity of the test substances to the calcium channel.
The affinity of the test substances to the calcium channel was determined by inhibition of the specific (S)-^3 H-devapamil binding to guinea-pig skeletal muscle membranes (FEBS Lett. 176, 371 (1984)). For this, the membranes were incubated with a fixed concentration of 1 nM (S)-^3 H-devapamil and increasing concentrations of test substance in 50 mM tris-HCl/0.1 mM phenylmethylsulfonyl fluoride, (pH 7.4) at 20° C. for 60 minutes. The non-specific binding was determined using 10^-6 M (S)-devapamil. The mixtures were then filtered through glass fiber filters, and the amount of (S)-^3 H-devapamil retained on the filter was determined by liquid scintillation measurement. The Ki values were determined by non-linear regression analysis.

T1 sequence (A0A286X7I0 1-1867): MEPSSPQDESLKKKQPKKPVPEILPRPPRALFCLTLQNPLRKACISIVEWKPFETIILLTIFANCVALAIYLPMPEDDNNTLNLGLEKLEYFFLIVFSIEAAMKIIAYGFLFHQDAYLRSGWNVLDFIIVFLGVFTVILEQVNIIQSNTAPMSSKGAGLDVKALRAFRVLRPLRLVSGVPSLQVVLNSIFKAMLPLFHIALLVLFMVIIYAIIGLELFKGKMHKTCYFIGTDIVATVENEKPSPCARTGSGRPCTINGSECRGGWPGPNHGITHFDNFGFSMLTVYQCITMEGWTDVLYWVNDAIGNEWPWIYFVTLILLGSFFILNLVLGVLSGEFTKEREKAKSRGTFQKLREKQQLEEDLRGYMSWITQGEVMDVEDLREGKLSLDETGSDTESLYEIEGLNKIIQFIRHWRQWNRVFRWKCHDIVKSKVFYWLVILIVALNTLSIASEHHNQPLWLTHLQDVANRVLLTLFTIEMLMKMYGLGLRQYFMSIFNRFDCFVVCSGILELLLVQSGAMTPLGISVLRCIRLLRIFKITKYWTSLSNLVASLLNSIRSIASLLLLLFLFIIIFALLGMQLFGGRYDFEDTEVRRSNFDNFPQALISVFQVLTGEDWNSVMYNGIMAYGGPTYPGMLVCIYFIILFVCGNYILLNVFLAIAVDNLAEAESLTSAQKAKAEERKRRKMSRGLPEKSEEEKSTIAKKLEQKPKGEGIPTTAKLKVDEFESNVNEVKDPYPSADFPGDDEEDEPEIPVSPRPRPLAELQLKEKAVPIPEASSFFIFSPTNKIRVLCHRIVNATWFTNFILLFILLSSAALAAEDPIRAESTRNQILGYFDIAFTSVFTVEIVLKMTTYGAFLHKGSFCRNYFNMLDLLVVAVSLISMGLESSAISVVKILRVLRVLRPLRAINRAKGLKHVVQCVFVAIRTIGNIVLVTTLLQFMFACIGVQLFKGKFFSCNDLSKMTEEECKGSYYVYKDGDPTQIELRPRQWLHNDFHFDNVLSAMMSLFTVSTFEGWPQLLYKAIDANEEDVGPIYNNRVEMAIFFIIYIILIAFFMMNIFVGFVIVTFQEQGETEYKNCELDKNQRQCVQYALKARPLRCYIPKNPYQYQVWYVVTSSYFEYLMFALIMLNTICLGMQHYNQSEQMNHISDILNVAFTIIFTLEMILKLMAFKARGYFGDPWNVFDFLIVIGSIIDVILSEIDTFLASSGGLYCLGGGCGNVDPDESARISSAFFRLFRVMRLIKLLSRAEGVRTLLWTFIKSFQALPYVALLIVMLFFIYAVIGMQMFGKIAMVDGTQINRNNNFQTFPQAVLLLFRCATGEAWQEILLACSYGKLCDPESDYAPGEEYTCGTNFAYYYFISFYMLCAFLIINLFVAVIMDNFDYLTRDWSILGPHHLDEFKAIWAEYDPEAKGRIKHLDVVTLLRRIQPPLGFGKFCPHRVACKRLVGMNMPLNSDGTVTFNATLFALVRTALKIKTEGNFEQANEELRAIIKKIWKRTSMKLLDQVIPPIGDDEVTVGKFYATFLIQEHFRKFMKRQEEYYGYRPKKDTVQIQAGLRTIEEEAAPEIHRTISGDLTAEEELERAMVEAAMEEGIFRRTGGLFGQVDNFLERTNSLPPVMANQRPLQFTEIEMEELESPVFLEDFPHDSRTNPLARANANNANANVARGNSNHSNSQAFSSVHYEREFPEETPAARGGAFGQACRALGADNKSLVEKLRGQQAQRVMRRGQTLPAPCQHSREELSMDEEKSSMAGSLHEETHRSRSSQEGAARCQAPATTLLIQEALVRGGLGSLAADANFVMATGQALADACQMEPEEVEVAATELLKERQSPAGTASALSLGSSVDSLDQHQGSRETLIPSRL

| SMILES | Test 1 ED 50% (dose which increases survival time of the animals by 50%), hypoxia [1] | Test 2 ED 50% (dose which increases survival time of the animals by 50%), global ischemia [2] | Ki [3] | ED50 [1] | ED50 [2] |
| --- | --- | --- | --- | --- | --- |
| OC(COc1ccccc1Cl)CN1CCN(CCCC(c2ccc(F)cc2)c2ccc(F)cc2)CC1 (centres unmarked) [Example 13, 1-[4,4-bis(4-fluorophenyl)butyl]-4-[2-hydroxy-3-(c-chlorophenoxy)propyl]piperazine] | 6.9 mg/kg | 39 mg/kg | 10 nM |  |  |
| N#Cc1ccccc1OCC(O)CN1CCN(CCCC(c2ccc(F)cc2)c2ccc(F)cc2)CC1 (centres unmarked) [Example 17, 1-[4,4-bis(4-fluorophenyl)butyl]-4-[2-hydroxy-3-(2-cyanophenoxy)propyl]piperazine] |  |  | 10 nM | 16 mg/kg | 27 mg/kg |
| OC(COc1ccc(F)cc1)CN1CCN(CCCC(c2ccc(F)cc2)c2ccc(F)cc2)CC1 (centres unmarked) [Example 2, 1-[4,4-bis(4-fluorophenyl)butyl]-4-[2-hydroxy-3(4-fluorophenoxy)propyl]piperazine] |  |  | 9.1 nM | 11 mg/kg | 20 mg/kg |
| OC(COc1ccc(Cl)cc1)CN1CCN(CCC(c2ccccc2)c2ccccc2)CC1 (centres unmarked) [Example 8, 1-[3,3-diphenylpropyl]-4-[2-hydroxy-3(4-chlorophenoxy)propyl]piperazine] |  |  | 160 nM | 5 mg/kg | 13 mg/kg |
| Cc1cccc(C)c1NC(=O)CN1CCN(CCCC(c2ccc(F)cc2)c2ccc(F)cc2)CC1 [lidoflazine, reference compound] |  |  | 20 nM | 10 mg/kg | > 46 mg/kg |
| OC(COc1ccc(Cl)c(Cl)c1)CN1CCN(CCCC(c2ccccc2)c2ccccc2)CC1 (centres unmarked) [Example 23, 1-[4,4-diphenylbutyl]-4-[2-hydroxy-3-(3,4-dichlorophenoxy)propyl]piperazine] |  |  | 22 nM | 8.6 mg/kg | 41 mg/kg |
| OC(COc1ccccc1)CN1CCN(CCC(c2ccccc2)c2ccccc2)CC1 (centres unmarked) [Example 7, 1-[3,3-diphenylpropyl]-4-[2-hydroxy-3-phenoxypropyl]piperazine] |  |  | 280 nM | 4.6 mg/kg | 10 mg/kg |
| OC(COc1ccc(Cl)cc1)CN1CCN(CCCC(c2ccc(F)cc2)c2ccc(F)cc2)CC1 (centres unmarked) [Example 1, 1-[4,4-bis(4-Fluorophenyl)butyl]-4-[2-hydroxy-3(4-chlorophenoxy)propyl]piperazine] |  |  | 8 nM | 11 mg/kg | 27 mg/kg |
| OC(COc1ccc(F)cc1)CN1CCN(CCC(c2ccccc2)c2ccccc2)CC1 (single isomer, unassigned; (-)) [Example 31] |  |  | 149 nM | 4.1 mg/kg | 9.3 mg/kg |
| OC(COc1ccc(F)cc1)CN1CCCN(CCCC(c2ccc(F)cc2)c2ccc(F)cc2)CC1 (centres unmarked) [Example 33, 1-[4,4-bis(4-fluorophenyl)butyl]-4-(2-hydroxy-3(4-fluorophenoxy)propyl]homopiperazine] |  |  | 13 nM | 4.8 mg/kg | 31 mg/kg |
| OC(COc1ccc(Cl)cc1)CN1CCN(CC(c2ccccc2)c2ccccc2)CC1 (centres unmarked) [Example 9, 1-[2,2-diphenylethyl]-4-[2-hydroxy-3-(4-chlorophenoxy)propyl]piperazine] |  |  | 30 nM | 7.3 mg/kg | 12 mg/kg |
| OC(COc1ccc(F)cc1)CN1CCN(CCCC(c2cccc(F)c2)c2cccc(F)c2)CC1 (centres unmarked) [Example 27, 1-[4,4-bis(3-fluorophenyl)butyl]-4-[2-hydroxy-3-(4-fluorophenoxy)propyl]piperazine] |  |  | 22 nM | 14 mg/kg | 29 mg/kg |
| OC(COc1ccc(F)cc1)CN1CCN(CCCC(c2ccccc2)c2ccccc2)CC1 (centres unmarked) [Example 22, 1-[4,4-diphenylbutyl]-4-[2-hydroxy-3-(4-fluorophenoxy)propyl]piperazine] |  |  | 15 nM | 6 mg/kg | 8.8 mg/kg |
| Fc1ccc(C(c2ccc(F)cc2)N2CCN(C/C=C/c3ccccc3)CC2)cc1 [flunarizine, reference compound] |  |  |  | > 100 mg/kg | 26.5 mg/kg |
| OC(CSc1ccc(F)cc1)CN1CCN(CCCC(c2ccc(F)cc2)c2ccc(F)cc2)CC1 (centres unmarked) [Example 34, 1-[4,4-bis(4-fluorophenyl)butyl]-4-[2-hydroxy-3-(4-fluoro-thiophenoxy)propyl]piperazine] |  |  | 9 nM | 9 mg/kg | 28 mg/kg |
| OC(COc1ccccc1)CN1CCN(CCCC(c2ccc(F)cc2)c2ccc(F)cc2)CC1 (centres unmarked) [Example 3, 1-[4,4-bis(4-fluorophenyl)butyl]-4-[2-hydroxy-3-phenoxypropyl]piperazine] |  |  | 8 nM | 10 mg/kg | 13 mg/kg |
| OC(COc1ccc(F)cc1)CN1CCN(CCC(c2ccccc2)c2ccccc2)CC1 (single isomer, unassigned; (+)) [Example 32] | 4.2 mg/kg | 9.5 mg/kg | 249 nM |  |  |
| Cc1ccc(C(CCCN2CCN(CC(O)COc3ccc(F)cc3)CC2)c2ccc(C)cc2)cc1 (centres unmarked) [Example 24, 1-[4,4-bis(4-methylphenyl)butyl]-4-[2-hydroxy-3-(4-fluorophenoxy)propyl]piperazine] |  |  | 12 nM | 23 mg/kg | 40 mg/kg |
| OC(COc1ccccc1)CN1CCN(CCCC(c2ccccc2)c2ccccc2)CC1 (centres unmarked) [Example 4, 1-[4,4-diphenylbutyl]-4-[2-hydroxy-3-phenoxypropyl]-piperazine] |  |  | 18 nM | 6.6 mg/kg | 8.6 mg/kg |
| OC(COc1ccc(F)cc1)CN1CCN(CCCC(c2ccc(F)cc2)c2ccc(F)cc2)CC1 (single isomer, unassigned; (+)) [Example 30, (+)-1[4,4-bis(4-fluorophenyl)butyl]-4-[2-hydroxy-3(4-fluorophenoxy)propyl]piperazine] | 4.0 mg/kg |  | 10 nM |  | 17 mg/kg |
| OC(COc1ccc(Cl)c(Cl)c1)CN1CCN(CCCC(c2ccc(F)cc2)c2ccc(F)cc2)CC1 (centres unmarked) [Example 12, 1-[4,4-bis(4-fluorophenyl)butyl]-4-[2-hydroxy-3-(3,4-dichlorophenoxy)propyl]piperazine] |  |  | 16 nM | 4.7 mg/kg | 45 mg/kg |
| O=[N+]([O-])c1ccc(OCC(O)CN2CCN(CCCC(c3ccc(F)cc3)c3ccc(F)cc3)CC2)cc1 (centres unmarked) [Example 16, 1-[4,4-bis(4-fluorophenyl)butyl]-4-[2-hydroxy-3-(4-nitrophenoxy)propyl]piperazine] |  |  | 11 nM | 5.5 mg/kg | 38 mg/kg |
| OC(CSc1ccccc1)CN1CCN(CCC(c2ccccc2)c2ccccc2)CC1 (centres unmarked) [Example 35] |  |  | 159 nM | 8.7 mg/kg | 14 mg/kg |
| OC(COc1cccc(C(F)(F)F)c1)CN1CCN(CCCC(c2ccc(F)cc2)c2ccc(F)cc2)CC1 (centres unmarked) [Example 11, 1-[4,4-bis(4-fluorophenyl)butyl]-4-[2-hydroxy-3(3-trifluoromethylphenoxy)propyl]piperazine] |  |  | 8 nM | 4.9 mg/kg | 46 mg/kg |
| OC(COc1ccc(F)cc1)CN1CCN(CCCC(c2ccc(F)cc2)c2ccc(F)cc2)CC1 (single isomer, unassigned; (-)) [Example 29, (-)-1[4,4-bis(4-fluorophenyl)butyl]-4-[2-hydroxy-3(4-fluorophenoxy)propyl]piperazine] | 1.6 mg/kg | 13 mg/kg | 9 nM |  |  |
